Assay results published in patent US20240131032A1, “AN ACTIVITY-GUIDED MAP OF ELECTROPHILE-CYSTEINE INTERACTIONS IN PRIMARY HUMAN IMMUNE CELLS” (The Scripps Research Institute, priority 2019, published 2024).

Legend:
[1] = target: T1, NuRD complex members (MBD2, MBD3, GATAD2B) (Homo sapiens, UniProt Q8WXI9); assay: Cysteine reactivity profiles of NuRD complex members in treated T cells; type: binding
T1 construct: endogenous in cells; host or cells: primary human T cells, 3 h treatment
Method: FIG. 7B is a scatter plot representation of protein abundance changes caused by BPK-25 (10 μM, 24 h) in two independent replicate experiments, with decreases in NuRD complex components highlighted in red. FIG. 7C is a heatmap of top proteins with decreased abundance in BPK-25-treated T cells showing that the subset of these proteins in the NuRD complex (asterisks) were largely unaltered by other active compounds and blocked in their degradation by co-treatment with the proteasome inhibitor MG132. […] FIG. 7E is a bar graph […] showing time-dependent reductions in NuRD complex members in human T cells treated with BPK-25 (10 μM). Left, representative western blots. Right, quantification of changes in protein. […]
At individual TMT experiment level, the following filters were applied to remove low-quality peptides: removal of non-unique peptides; removal of half-tryptic peptides; removal of peptides with more than one internal miscleaved site; removal of peptides with low (<10,000) sum of reporter ion intensities for control channels, and peptides with high variation between the replicate control channels (coefficient of variance >0.5). R values (compound-treated vs. DMSO-treated) for each peptide entry were calculated using the reporter ion intensities of DMSO and compound treated TMT channels for each treatment group with a maximum ratio cap of 20. […]

BIRC3 = target: T2, BIRC3 (Homo sapiens, UniProt Q13489, C28A); assay: Western blot of BIRC3 content in human T cells; type: cell-based; details: EV-3 10 μM, 24 h; transfected primary human T cells
T2 construct: endogenous in cells; host or cells: primary human T cells
T2 sequence (Q13489 whole entry C28A): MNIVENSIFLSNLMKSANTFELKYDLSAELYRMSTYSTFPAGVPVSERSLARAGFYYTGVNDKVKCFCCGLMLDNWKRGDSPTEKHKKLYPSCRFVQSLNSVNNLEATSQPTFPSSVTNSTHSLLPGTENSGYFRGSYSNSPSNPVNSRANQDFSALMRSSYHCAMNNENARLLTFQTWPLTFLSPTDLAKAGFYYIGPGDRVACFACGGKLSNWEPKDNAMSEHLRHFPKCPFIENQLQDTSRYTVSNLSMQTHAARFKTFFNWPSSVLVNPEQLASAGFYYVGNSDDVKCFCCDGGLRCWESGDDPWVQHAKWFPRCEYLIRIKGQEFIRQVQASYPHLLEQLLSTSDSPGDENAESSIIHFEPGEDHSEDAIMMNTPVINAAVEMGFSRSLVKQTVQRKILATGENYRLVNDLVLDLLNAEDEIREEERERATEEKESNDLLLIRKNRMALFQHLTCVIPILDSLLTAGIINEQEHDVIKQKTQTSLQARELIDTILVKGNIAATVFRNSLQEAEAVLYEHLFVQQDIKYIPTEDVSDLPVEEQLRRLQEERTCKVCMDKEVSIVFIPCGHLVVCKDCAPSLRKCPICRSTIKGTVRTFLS

T1 sequence (Q8WXI9 whole entry, one chain of several): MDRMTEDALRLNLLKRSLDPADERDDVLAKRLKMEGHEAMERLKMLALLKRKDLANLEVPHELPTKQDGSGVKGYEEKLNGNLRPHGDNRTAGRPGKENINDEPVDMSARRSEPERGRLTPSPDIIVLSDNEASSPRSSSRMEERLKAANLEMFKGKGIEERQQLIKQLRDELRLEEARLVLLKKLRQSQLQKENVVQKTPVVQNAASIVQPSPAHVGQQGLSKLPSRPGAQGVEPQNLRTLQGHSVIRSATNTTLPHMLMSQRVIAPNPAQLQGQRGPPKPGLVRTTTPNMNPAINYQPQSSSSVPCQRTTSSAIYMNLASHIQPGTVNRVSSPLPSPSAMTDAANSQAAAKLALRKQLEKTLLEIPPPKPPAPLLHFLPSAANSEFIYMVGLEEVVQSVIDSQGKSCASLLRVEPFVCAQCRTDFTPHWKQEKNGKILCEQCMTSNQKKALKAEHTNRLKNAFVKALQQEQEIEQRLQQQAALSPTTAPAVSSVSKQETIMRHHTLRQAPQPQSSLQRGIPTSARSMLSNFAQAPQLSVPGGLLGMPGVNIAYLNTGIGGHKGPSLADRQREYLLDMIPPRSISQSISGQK

| SMILES | apparent reactivity of C308 of GATAD2B [1] | FLAG-tagged BIRC3 C28A mutant content (BIRC3) |
| --- | --- | --- |
| COC(=O)/C=C/C(=O)OC [DMF, reference compound] | decreased the apparent reactivity | – |
| O=C(CCl)N1CCN(S(=O)(=O)c2ccc(-c3ccncc3)cc2)CC1 [EV-3] | – | but not cysteine mutants |
